Reference: patent US20200113852A1, “METHODS OF PATIENT SELECTION AND TREATING TRXR- OR PRDX-OVEREXPRESSED CANCERS” (TRIACT THERAPEUTICS, INC., priority 2017, published 2020)
Like-named read-outs stand apart in the source and are kept apart here.

What was measured:
recombinant human GAPDH = target: T1, recombinant human GAPDH (Homo sapiens, UniProt P04406); experiment: In vitro modification of GAPDH by Iniparib and I-NOBA; type: binding
T1 construct: purchased Acris
Experimental: For biochemical analysis, recombinant human GAPDH (Acris) was first reduced by a 15,000-fold excess of DTT at 56° C. for 30 min, the reducing agent being removed thereafter by chloroform/methanol precipitation. […] Afterwards the samples were submitted or not to another reducing step with 25 mM DTT (56° C., 30 min), and after removal of DTT by chloroform/methanol precipitation, biotinylation of free cysteine sulfhydryl groups of GAPDH was performed with HPDP-biotin (N-[6-(Biotinamido)hexyl]-3′-(2′-pyridyldithio)propionamide) at […] for 2 h at 20° C.
Sample mixtures were then reduced or not with 25 mM DTT (56° C., 30 min). Intact molecular weights were measured by mass spectrometry. Liquid chromatography-electrospray ionization mass spectrometry (LC/MS) was carried out using LTQ-Orbitrap Elite mass spectrometer (Thermo Fisher Scientific) coupled to a Famos Autosampler and an Ultimate Pump (LC-Packing, Dionex). Reverse phase chromatography was performed with a binary buffer system consisting of 0.2% formic acid (buffer A) and 80% acetonitrile in 0.2% formic acid (buffer B). After dilution to 1 pmole/μl in 0.2% formic acid, 1 μl of samples were loaded on a Poros 1 R/H column (75 μm×15 cm, Dionex). […] Mass spectra (m/z 500-2,000) were acquired in the positive ITMS mode with 5 μscans accumulation, a target value of 30,000 and a maximum injection time of 100 ms. The acquired raw files were converted in MassLynx format (Waters) using an home-made program and then were deconvoluted using MaxEnt software (Waters).

Prdx1 = target: T2, Prdx1 (Homo sapiens, UniProt Q06830); experiment: Monomeric avidin pull-down and Prdx1 immunoprecipitation, identification of Prdx1 modification; type: cell-based; conditions: GSH-depleted HCT116, 100 μM, 4 h
T2 construct: endogenous in cells; host or cells: HCT116 (GSH-depleted with BSO)
T2 sequence (Q06830 2-199 limits assumed): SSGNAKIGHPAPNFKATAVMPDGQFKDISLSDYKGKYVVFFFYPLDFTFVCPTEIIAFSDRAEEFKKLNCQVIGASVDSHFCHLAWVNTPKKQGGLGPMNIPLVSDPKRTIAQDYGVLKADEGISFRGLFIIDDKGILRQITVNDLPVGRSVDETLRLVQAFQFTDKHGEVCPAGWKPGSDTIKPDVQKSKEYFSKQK
Experimental: After separation by SDS-PAGE under reducing conditions and PageBlue® protein staining (Thermo scientific), bands of interest were excised, reduced with DTT, alkylated with iodoacetamide and in-gel digested with trypsin (Promega). Peptides were extracted with acetonitrile 50% in 0.2% formic acid and analyzed by Nano LC-MS/MS after partial evaporation in a speed-vac concentrator. LC-MS/MS experiments were performed on an NanoAcquity UPLC (Waters) coupled to a hybrid LTQ Orbitrap Velos mass spectrometer (Thermo Fisher Scientific) equipped with a nanoelectrospray source. Tryptic digests were loaded onto a nanoAcquity UPLC Trap column (Symmetry C18, 5 μm, 180 μm×20 mm, Waters) and washed with 0.2% formic acid at 20 μL/min for 5 min. Peptides were then eluted on a C18 reverse-phase nanoAcquity column (BEH130 C18, 1.7 μm, 75 μm×250 mm, Waters) with a linear gradient of 7-30% solvent B (H2O/CH3CN/HCOOH, 10:90:0.2, by vol.) for 85 min, 30-90% solvent B for 10 min, and 90% solvent B for 5 min, at a flow rate of 250 nL/min.
The mass spectrometer was operated in the data-dependent mode to automatically switch between MS and MS/MS acquisition. […] The exact parent mass is the ^12C isotope ion mass of the most intense isotopic pattern detected on the high resolution Orbitrap MS parallel scan and included in the MS/MS selection window. […]

TrxR in HCT116 cells = target: T3, TrxR in HCT116 cells (Homo sapiens, UniProt Q16881); experiment: Endogenous TrxR activity in cell lysates (DTNB reduction assay); type: cell-based
T3 sequence (Q16881 1-649): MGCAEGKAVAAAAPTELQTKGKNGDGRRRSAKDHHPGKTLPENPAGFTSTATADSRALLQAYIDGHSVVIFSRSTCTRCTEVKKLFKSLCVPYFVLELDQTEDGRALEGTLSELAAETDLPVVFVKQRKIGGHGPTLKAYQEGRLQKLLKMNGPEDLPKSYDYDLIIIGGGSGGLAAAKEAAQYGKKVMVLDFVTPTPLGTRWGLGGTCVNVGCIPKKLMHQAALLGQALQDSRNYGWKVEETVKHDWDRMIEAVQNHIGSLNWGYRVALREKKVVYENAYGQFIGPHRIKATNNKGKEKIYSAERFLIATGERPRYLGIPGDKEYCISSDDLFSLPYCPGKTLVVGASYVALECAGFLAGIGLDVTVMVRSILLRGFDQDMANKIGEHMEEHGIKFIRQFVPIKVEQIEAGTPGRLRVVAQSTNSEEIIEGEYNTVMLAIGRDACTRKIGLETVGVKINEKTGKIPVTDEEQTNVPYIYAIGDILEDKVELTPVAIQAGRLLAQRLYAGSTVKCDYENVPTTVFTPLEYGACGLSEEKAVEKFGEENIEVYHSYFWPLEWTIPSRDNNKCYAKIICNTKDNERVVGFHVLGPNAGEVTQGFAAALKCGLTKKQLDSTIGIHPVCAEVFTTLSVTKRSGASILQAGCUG

[1] = HCT-116, read-out: inhibition of TrxR reductase activity, 100 μM, 4 h, BSO-pretreated HCT116
[2] = HCT-116, read-out: inhibition of TrxR reductase activity, 100 μM, first 2 h of incubation, BSO-pretreated HCT116

T1 sequence (P04406 whole entry): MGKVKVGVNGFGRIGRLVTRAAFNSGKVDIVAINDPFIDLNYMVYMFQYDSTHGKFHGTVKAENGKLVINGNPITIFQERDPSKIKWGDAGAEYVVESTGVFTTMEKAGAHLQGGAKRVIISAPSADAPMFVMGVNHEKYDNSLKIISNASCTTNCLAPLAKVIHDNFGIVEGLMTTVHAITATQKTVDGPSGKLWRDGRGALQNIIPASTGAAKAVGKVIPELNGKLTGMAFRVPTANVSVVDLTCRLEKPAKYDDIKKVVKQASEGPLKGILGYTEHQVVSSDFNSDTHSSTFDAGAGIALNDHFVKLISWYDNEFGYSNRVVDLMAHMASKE

## NC(=O)c1ccc(I)c([N+](=O)[O-])c1 [Iniparib, 4-iodo-3-nitrobenzamide]
Recombinant human GAPDH; purified GAPDH incubated with compound
  covalent modification of GAPDH (MS analysis): not able to covalently modify the protein
Recombinant human GAPDH; purified GAPDH, biotin-HPDP labeling, streptavidin-HRP blot
  blocking of free thiol groups in GAPDH: ineffective
Prdx1
  Prdx1 modification after in-cell bio activation: modifies Cys173
TrxR in HCT116 cells; [1]
  inhibition at 100 µM: ~100%
TrxR in HCT116 cells; [2]
  inhibition at 100 µM: > 90%

## O=C(CCCC[C@@H]1SC[C@@H]2NC(=O)N[C@@H]21)NCCNC(=O)c1ccc(I)c([N+](=O)[O-])c1 [Iniparib-biotin, 4-iodo-3-nitro-N-(2-(5-((3 aS,4S,6aR)-2-oxohexahydro-1H-thieno[3,4-d]imidazol-4-yl)pentanamido)ethyl)benzamide]
Recombinant human GAPDH
  modification of free thiol groups in purified GAPDH: did not modify free thiol groups
Prdx1
  Prdx1 modification after in-cell bio activation: modifies Cys173
TrxR in HCT116 cells; [1]
  inhibition at 100 µM: ~100%
TrxR in HCT116 cells; [2]
  inhibition at 100 µM: > 90%
